According to patent US20050245537A1, “Use of compounds having ccr antagonism” (priority 2002, published 2005):

System: Mouse Skin Graft Rejection Model
Experiment: Mouse skin graft rejection model
Assay type: in vivo
Text: Effects of a Compound with Respect to a Mouse Skin Graft Rejection Model

For `Cc1ccc(-c2ccc3c(c2)C=C(C(=O)Nc2ccc(C[N+](C)(C)C4CCOCC4)cc2)CCC3)cc1.[Cl-]` [N,N-dimethyl-N-(4-[[[2-(4-methylphenyl)-6,7-dihydro-5H-benzocyclohepten-8-yl]carbonyl]amino]benzyl]tetrahydro-2H-pyran-4-ammonium chloride], the “graft rejection suppression effect” value (10 mg/kg subdermally once a day, P<0.05 vs. control, log-rank test) was “significant” and the “number of days of skin graft life” value (donor mouse B6-CH-2^bm12 abdominal skin grafted onto recipient mouse (B6/129), 10 mg/kg subdermally once a day from the day of grafting, n=7, control group 13.0±2.8 days (n=6)) was 19.6 ± 4.4 days.
